Values of other authors in publication PMC10675484, “Characterization and Pharmacokinetic Assessment of a New Berberine Formulation with Enhanced Absorption In Vitro and in Human Volunteers” (Pharmaceutics, 2023).
Where two headings read alike, the source gives them in different places. Each block holds one compound with its values, some of them ahead of it.

How the values were obtained:
[1] = not given; remark: listed apart in the source
[2] = parameters: method as in PMID 26851175; details: orally administered berberine
[3] = not given; remark: listed apart in the source
[4] = 500 mg berberine, within a 2 h period
[5] = 20 study participants, oral 400 mg of berberine
[6] = human volunteers, doses similar to the current study

SMILES: COc1ccc2c(c1OC)CN1CCc3cc4c(cc3C1=C2)OCO4 [DHB, dihydroberberine]
Glucose and insulin response (study participants, during the study period): no significant changes

Biopharmaceutical Classification System class [1]: class III | Solubility in water [1]: approximately 1.3 mg/mL
SMILES: COc1ccc2cc3[n+](cc2c1OC)CCc1cc2c(cc1-3)OCO2 [BCl]

Fraction metabolized in the enterocytes [2]: approx. 43.5% | Absolute bioavailability ([3]; oral administration in rats, ref 23, 24): < 1% | Absolute bioavailability ([3]; oral administration in rats, ref 24): 0.68% | Absorption rate in the gut ([3]; oral administration in rats, ref 25): approx. 33.6% | AUC in the liver relative to plasma ([3]; orally administered berberine 200 mg/kg): 10 fold | AUC (berberine) [4]: 42.3 ± 17.6 ng·h/mL | Cmax (berberine) [4]: 0.4 ± 0.17 ng/mL | Cmax (500 mg of berberine in 10 volunteers): 0.07 nM | Mean AUC0–∞ [5]: ~9.2 ng·h/mL | Mean Cmax [5]: approx. 0.4 ng/mL | Fraction of orally administered dose entering the systemic circulation (human pharmacokinetic studies): ≤ 5% | AUC (total berberine) [6]: 1.217 ± 0.129 ng·h/mL | Cmax (total berberine) [6]: 0.31688 ± 0.0266 ng/mL | Elimination half-life (oral administration in humans): 2.94 ± 0.14 h
SMILES: COc1ccc2cc3[n+](cc2c1OC)CCc1cc2c(cc1-3)OCO2 [berberine, 2,3-methylenedioxy-9,10-dimethoxy-protoberberine]
